Test results as given in article PMC5141568 (ACS Medicinal Chemistry Letters, 2015).
Entries after “also recorded” stand apart in the source; their conditions may differ.

Molecular target: T1, Naegleria Tet1 (NgTet1) (Naegleria gruberi, UniProt D2W6T1)
T1 sequence (D2W6T1 1-321): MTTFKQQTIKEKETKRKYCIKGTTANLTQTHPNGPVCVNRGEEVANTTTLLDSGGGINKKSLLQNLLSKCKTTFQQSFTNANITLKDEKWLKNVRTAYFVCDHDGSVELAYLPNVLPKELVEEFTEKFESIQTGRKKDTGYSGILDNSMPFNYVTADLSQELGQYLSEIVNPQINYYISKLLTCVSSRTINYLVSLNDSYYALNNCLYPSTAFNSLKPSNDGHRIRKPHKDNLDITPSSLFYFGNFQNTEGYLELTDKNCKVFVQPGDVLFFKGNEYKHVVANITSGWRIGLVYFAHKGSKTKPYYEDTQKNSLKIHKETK
Test: FP competitive binding assay
Conditions: for competitive displacement of 3 from NgTet1: at the concentrations tested (up to 5.0 mM for 8 and 9)

Structure (SMILES) | competitive displacement of 3 from NgTet1 | inhibition at the highest concentrations tested (2.5 and 1.25 mM)
O=C(O)CCC(=O)C(=O)O [compound 4, α-ketoglutarate] | showed the ability to competitively displace 3 | –
O=C(O)CNC(=O)C(=O)O [compound 5, N-oxalyl glycine] | showed the ability to competitively displace 3 | –
O=C(O)c1ccnc(C(=O)O)c1 [compound 6, pyridine 2,4-dicarboxylic acid] | showed the ability to competitively displace 3 | –
O=C(O)CC[C@@H](O)C(=O)O [compound 7, D-2-hydroxyglutaric acid] | – | very slight inhibition
Cc1cn([C@H]2C[C@H](O)[C@@H](CO)O2)c(=O)nc1N [compound 8, 5-methyl-2'-deoxycytidine] | Neither 5mC (8) nor 5hmC (9) showed competitive binding; also recorded: unable to competitively displace 3 | –
Nc1nc(=O)n([C@H]2C[C@H](O)[C@@H](CO)O2)cc1CO [compound 9, 2'-deoxy-5-(hydroxymethyl)cytidine] | Neither 5mC (8) nor 5hmC (9) showed competitive binding; also recorded: unable to competitively displace 3 | –
